The target in one assay is T1, IDH1^R132C (Homo sapiens, UniProt O75874, R132C).
T1 construct: purchased not specified
The assay can be described thus: NADPH depletion assay, IDH1 R132C. Format: biochemical. The gist of the method:
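IDH1 R132C (2 nM) preincubated 15 min at RT with compound in Tris-HCl pH 7.6/MgCl2 buffer, then 60 min RT with NADPH and 0.14 mM alpha-ketoglutarate. Remaining NADPH read by diaphorase/resazurin fluorescence (Ex544/Em590).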

In assay [1] the target is T2, IDH1^R132H homodimer enzyme (Homo sapiens, UniProt O75874, R132H).
T2 construct: purchased not specified
The assay can be described thus: NADPH depletion assay, IDH1 R132H. It is filed as biochemical. The method, boiled down:
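IDH1 R132H enzyme (8 nM as diluted) in Tris-HCl pH 7.6 with 10 mM MgCl2, 0.001% Triton X-100 and 4 mM β-mercaptoethanol is preincubated 15 min at RT with compound. Substrate mix (12 uM NADPH, 3.4 mM α-ketoglutarate) is added for 60 min; remaining NAD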

The next assay concerns the target T3, IDH2^R172K (Homo sapiens, UniProt P48735, R172K).
T3 construct: purchased not specified
T3 sequence (P48735 40-452 R172K): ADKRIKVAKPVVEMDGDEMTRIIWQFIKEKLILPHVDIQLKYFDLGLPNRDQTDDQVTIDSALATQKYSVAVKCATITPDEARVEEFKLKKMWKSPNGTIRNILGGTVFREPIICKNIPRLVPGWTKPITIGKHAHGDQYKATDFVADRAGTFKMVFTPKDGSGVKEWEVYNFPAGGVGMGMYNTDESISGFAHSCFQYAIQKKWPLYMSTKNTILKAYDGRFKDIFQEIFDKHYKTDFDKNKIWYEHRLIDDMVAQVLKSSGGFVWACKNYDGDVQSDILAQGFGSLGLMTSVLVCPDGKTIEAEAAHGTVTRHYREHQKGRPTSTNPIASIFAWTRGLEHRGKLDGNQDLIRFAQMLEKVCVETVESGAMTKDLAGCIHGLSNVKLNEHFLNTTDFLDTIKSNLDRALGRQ
As to the kind of experiment: NADPH depletion assay, IDH2 R172K. It is filed as biochemical. The method, boiled down: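 IDH2 R172K (16 nM) was preincubated 15 min at RT with compound (1:3 series from 1 mM in DMSO) in Tris pH 7.6/NaCl/MgCl2/Triton/β-mercaptoethanol. The reaction ran 60 min at RT with 0.55 mM alpha-ketoglutarate and NADPH (12 μM in the substrate mix). Remaining NADPH was read with diaphorase/resazurin fluorescence at Ex544/Em590.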

For another assay, the system named is U87MG_IDH1R132H. As to the kind of experiment: Cellular 2-HG production assay, U87-MG-IDH1 R132H. It is filed as cell-based. The following applies: inhibition of 2HG production, 72 hr incubation, LC-MS/MS. On the procedure:
(§1) Cell lines HT-1080 (commercially available) and U87-MG-IDH1^R132H (obtained in analoy to the procedure reported in J. Mol. Neurosci 2013, 50, 165-71) are maintained in E-MEM 10% FCS and incubated at 37° C. in a humidified 5% CO2 atmosphere. Stably transfected U87-MG cell lines are also supplemented with 500 μg/mL G418.
(§2) Cells are seeded into 96 well black flat bottom plates at a density of 500 cells/well in 100 μL complete medium. After 24 hr the medium is replaced with 200 uL of fresh medium and compounds (dissolved into DMSO) are administrated to the cells using D300E Digital Dispenser (Tecan).
(§3) After 72 hr of incubation 100 uL from each well are collected and used for 2HG (R(−)-2-hydroxyglutarate) quantification.
(§4) Levels of 2-HG in cell culture media are determined by LC-MS/MS. Cell supernatants (100 μL/well) are treated with 1 M aqueous trichloroacetic acid containing 130 μM of the internal standard 2-HG-d3 (20 μL/well) in a 96-well plate.
(§5) The plates are sealed, mildly vortexed for 60 minutes, centrifuged at 4,000 RPM for 15 minutes, placed in a refrigerated autosampler taking care not to shake them, and aliquots of the upper part of the samples are directly injected in the chromatographic system. Calibration standards are obtained by ten fold dilution of aqueous 2-HG stock solutions with blank cell culture medium and denatured exactly in the same way as described above for samples. Samples and standards are assayed for 2-HG by reversed phase chromatography on a C18 column eluted with aqueous 0.15% formic acid and briefly washed with 90% methanol at the end of the run. 2-HG is determined by negative ion electrospray ionization with the internal standard method on a triple quadrupole mass spectrometer monitoring the MRM transitions 147>129 (2-HG) and 150>132 (2-HG-d3). 2-HG inhibition was calculated by comparing treated versus control data using Assay Explore (Symyx) software, with IC50 determined using a sigmoidal fitting algorithm.

The subject of another assay is HT-1080 (IDH1^R132C). The assay can be described thus: Cellular 2-HG production assay, HT-1080. The following applies: Homo sapiens, HT-1080, 72 h, inhibition of 2HG production, 72 hr incubation, LC-MS/MS; read-out: HT1080 2-HG IC50. Format: cell-based. Here is the method:
as §1, §2, §3, §4, §5

T2 sequence (O75874 whole entry R132H): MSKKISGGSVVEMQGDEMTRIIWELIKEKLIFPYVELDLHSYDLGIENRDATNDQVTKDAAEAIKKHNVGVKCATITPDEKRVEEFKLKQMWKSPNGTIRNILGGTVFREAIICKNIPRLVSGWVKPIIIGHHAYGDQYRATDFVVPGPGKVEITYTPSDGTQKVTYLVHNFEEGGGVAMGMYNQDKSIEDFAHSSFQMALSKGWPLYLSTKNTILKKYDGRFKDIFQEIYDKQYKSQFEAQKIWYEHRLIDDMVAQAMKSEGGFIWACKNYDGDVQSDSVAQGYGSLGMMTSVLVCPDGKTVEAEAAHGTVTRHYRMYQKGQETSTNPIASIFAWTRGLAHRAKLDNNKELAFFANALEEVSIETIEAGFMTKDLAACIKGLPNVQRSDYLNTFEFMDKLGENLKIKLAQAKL
T1 sequence (O75874 whole entry R132C): as the sequence (O75874 whole entry R132H) above, with H132C counted along it

Turning to `C[C@H](Nc1ncc2ccc(=O)n([C@@H](C)C3CCCCC3)c2n1)c1ccc(CN2CCCC(F)(F)C2)cc1` [cpd 66, 8-[(1S)-1-cyclohexylethyl]-2-{[(1S)-1-{4-[(3,3-difluoropiperidin-1-yl)methyl]phenyl}ethyl]amino} pyrido[2,3-d]pyrimidin-7(8H)-one], the IC50 was 94 nM at IDH1^R132C; 161 nM in assay [1]; 4.54 µM on IDH2^R172K; 691 nM with U87MG_IDH1R132H; 353 nM in the assay on HT-1080 (IDH1^R132C).

Regarding `C[C@H](Nc1ncc2ccc(=O)n(CC(C)(C)C)c2n1)c1ccc(CN2CCOCC2)cc1` [cpd 110, 8-(2,2-dimethylpropyl)-2-({(1S)-1-[4-(morpholin-4-ylmethyl)phenyl]ethyl}amino)pyrido[2,3-d]pyrimidin-7(8H)-one], the IC50 on IDH1^R132C came out at 104 nM; in assay [1], 238 nM; in the assay on U87MG_IDH1R132H it was 2610 nM; in the assay on HT-1080 (IDH1^R132C) it was 590 nM.

Turning to `CC[C@H](C)n1c(=O)ccc2cnc(N[C@@H](C)c3ccc(CN4CCCC(F)(F)C4)cc3)nc21` [cpd 62, 8-[(2S)-butan-2-yl]-2-{[(1S)-1-{4-[(3,3-difluoropiperidin-1-yl)methyl]phenyl}ethyl]amino}pyrido[2,3-d]pyrimidin-7(8H)-one], the 50% inhibitory concentration (IC50) stood at 44 nM at IDH1^R132C; 82 nM in assay [1]; 5.7 µM against IDH2^R172K; 462 nM with U87MG_IDH1R132H; 169 nM in the assay on HT-1080 (IDH1^R132C).

Turning to `CC(C)[C@H](C)n1c(=O)ccc2cnc(N[C@@H](C)c3ccc(CN4CCOCC4)c(F)c3)nc21` [cpd 68, 2-({(1S)-1-[3-fluoro-4-(morpholin-4-ylmethyl)phenyl]ethyl}amino)-8-[(2S)-3-methylbutan-2-yl]pyrido[2,3-d]pyrimidin-7(8H)-one], the IC50 at IDH1^R132C came to 29 nM; in assay [1] it was 78 nM; with U87MG_IDH1R132H, 646 nM; in the assay with HT-1080 (IDH1^R132C) it was 315 nM.

With `C[C@H](Nc1ncc2ccc(=O)n(CC(C)(C)C(F)(F)F)c2n1)c1ccc(CN2CCC(F)(F)CC2)cc1` [cpd 116, 2-{[(1S)-1-{4-[(4,4-difluoropiperidin-1-yl)methyl]phenyl}ethyl]amino}-8-(3,3,3-trifluoro-2,2-dimethylpropyl) pyrido[2,3-d]pyrimidin-7(8H)-one], the IC50 was found to be 101 nM against IDH1^R132C; 176 nM in assay [1]; 5.02 µM against IDH2^R172K; 612 nM in the assay with U87MG_IDH1R132H; 311 nM in the assay with HT-1080 (IDH1^R132C).

Take `CC(C)[C@H](C)n1c(=O)ccc2cnc(N[C@@H](C)c3ccc(CN4CCCC(F)(F)C4)cc3)nc21` [cpd 65, 2-{[(1S)-1-{4-[(3,3-difluoropiperidin-1-yl)methyl]phenyl}ethyl]amino}-8-[(2S)-3-methylbutan-2-yl]pyrido[2,3-d]pyrimidin-7(8H)-one]: the IC50 at IDH1^R132C was 11 nM; in assay [1], 20 nM; in the assay with U87MG_IDH1R132H, 179 nM; with HT-1080 (IDH1^R132C), 82 nM.

For the molecule `C[C@H](Nc1ncc2ccc(=O)n(CC(C)(C)C)c2n1)c1ccc(C(=O)N2CCC(F)(F)CC2)cc1` [cpd 83, 2-{[(1S)-1-{4-[(4,4-difluoropiperidin-1-yl)carbonyl]phenyl}ethyl]amino}-8-(2,2-dimethylpropyl) pyrido[2,3-d]pyrimidin-7(8H)-one], the IC50 was determined as 196 nM on IDH1^R132C, 347 nM in assay [1], 4.26 µM at IDH2^R172K and 2060 nM in the assay with U87MG_IDH1R132H.

In the case of `C[C@H](Nc1ncc2ccc(=O)n(CC(C)(C)C)c2n1)c1ccc(C(=O)NC2CCC(F)(F)CC2)c(F)c1` [cpd 89, N-(4,4-difluorocyclohexyl)-4-[(1S)-1-{[8-(2,2-dimethylpropyl)-7-oxo-7,8-dihydropyrido[2,3-d]pyrimidin-2-yl]amino}ethyl]-2-fluorobenzamide], the half-maximal inhibitory concentration (IC50) at IDH1^R132C stood at 75 nM; in assay [1] it was 112 nM; in the assay on U87MG_IDH1R132H, 501 nM; with HT-1080 (IDH1^R132C), 505 nM.

The values are drawn from patent publication US12018023B2 (NERVIANO MEDICAL SCIENCES S.R.L., priority 2018, dated 2024).
